Reference: ChEMBL document CHEMBL3991601, “The target landscape of clinical kinase drugs” (Science, 2017)
Calls of active or inactive are those of the source. Cut-off read from the data, not from the text of the source, for most assays here: actives have a measured Kd and inactives only a lower limit.

What was measured:
Adenosine kinase = Adenosine kinase (Homo sapiens, UniProt P55263)
[1] = target: Tyrosine-protein kinase BTK (Homo sapiens, UniProt Q06187)
[2] = target: Cyclin-dependent kinase 1 (Homo sapiens, UniProt P06493)
[3] = target: Casein kinase II subunit alpha' (Homo sapiens, UniProt P19784)
[4] = target: Eukaryotic translation initiation factor 2-alpha kinase 1 (Homo sapiens, UniProt Q9BQI3)
[5] = target: Mitogen-activated protein kinase kinase kinase 1 (Homo sapiens, UniProt Q13233)
[6] = target: Mitogen-activated protein kinase kinase kinase 4 (Homo sapiens, UniProt Q9Y6R4)
[7] = target: Mitogen-activated protein kinase kinase kinase kinase 1 (Homo sapiens, UniProt Q92918)
[8] = target: T1, RNA cytidine acetyltransferase (Homo sapiens, UniProt Q9H0A0)
T1 sequence (Q9H0A0 whole entry): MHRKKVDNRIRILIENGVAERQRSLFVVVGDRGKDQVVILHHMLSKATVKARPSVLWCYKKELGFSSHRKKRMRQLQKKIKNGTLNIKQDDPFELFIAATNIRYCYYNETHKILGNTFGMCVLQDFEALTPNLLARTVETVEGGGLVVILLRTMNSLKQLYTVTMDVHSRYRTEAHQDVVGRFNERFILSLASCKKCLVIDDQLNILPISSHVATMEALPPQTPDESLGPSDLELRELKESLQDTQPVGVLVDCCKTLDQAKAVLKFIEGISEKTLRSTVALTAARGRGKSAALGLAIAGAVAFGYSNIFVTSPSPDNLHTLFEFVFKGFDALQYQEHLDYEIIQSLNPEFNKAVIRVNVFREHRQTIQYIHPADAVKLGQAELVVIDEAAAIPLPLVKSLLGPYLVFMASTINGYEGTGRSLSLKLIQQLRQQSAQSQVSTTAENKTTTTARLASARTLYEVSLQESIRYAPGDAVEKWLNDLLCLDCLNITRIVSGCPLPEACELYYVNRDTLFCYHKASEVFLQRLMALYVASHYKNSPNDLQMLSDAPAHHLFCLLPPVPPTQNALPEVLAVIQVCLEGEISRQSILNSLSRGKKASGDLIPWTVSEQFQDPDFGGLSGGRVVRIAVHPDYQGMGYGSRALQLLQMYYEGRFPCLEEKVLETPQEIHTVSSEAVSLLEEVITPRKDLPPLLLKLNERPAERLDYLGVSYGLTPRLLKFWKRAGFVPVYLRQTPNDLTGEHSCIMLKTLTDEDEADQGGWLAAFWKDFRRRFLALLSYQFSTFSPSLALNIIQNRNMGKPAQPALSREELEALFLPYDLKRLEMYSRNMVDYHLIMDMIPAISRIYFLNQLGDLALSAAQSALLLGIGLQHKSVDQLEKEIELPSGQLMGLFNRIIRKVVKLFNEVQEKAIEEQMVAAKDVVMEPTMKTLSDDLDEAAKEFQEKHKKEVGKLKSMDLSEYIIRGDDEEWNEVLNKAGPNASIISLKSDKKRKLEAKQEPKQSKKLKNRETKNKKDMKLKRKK

[9] = target: Serine/threonine-protein kinase PAK 2 (Homo sapiens, UniProt Q13177)
[10] = target: Platelet-derived growth factor receptor beta (Homo sapiens, UniProt P09619)
[11] = target: T2, Serine/threonine-protein kinase 3 (Homo sapiens, UniProt Q13188)
T2 sequence (Q13188 whole entry): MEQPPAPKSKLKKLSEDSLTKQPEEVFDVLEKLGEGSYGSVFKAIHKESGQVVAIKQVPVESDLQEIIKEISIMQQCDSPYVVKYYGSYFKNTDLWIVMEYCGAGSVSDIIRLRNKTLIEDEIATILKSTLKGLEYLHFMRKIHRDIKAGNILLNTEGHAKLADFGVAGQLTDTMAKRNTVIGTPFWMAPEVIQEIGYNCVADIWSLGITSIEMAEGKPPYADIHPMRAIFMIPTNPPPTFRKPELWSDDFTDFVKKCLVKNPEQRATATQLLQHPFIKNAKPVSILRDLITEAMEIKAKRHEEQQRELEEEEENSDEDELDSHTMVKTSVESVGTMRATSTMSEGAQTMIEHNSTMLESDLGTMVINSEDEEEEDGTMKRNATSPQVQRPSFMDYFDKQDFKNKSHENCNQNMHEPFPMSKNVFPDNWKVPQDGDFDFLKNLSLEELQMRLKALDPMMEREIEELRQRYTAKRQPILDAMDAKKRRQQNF

[12] = target: Tyrosine-protein kinase SYK (Homo sapiens, UniProt P43405)
[13] = target: T3, Succinate--CoA ligase [ADP-forming] subunit beta, mitochondrial (Homo sapiens, UniProt Q9P2R7)
T3 sequence (Q9P2R7 whole entry): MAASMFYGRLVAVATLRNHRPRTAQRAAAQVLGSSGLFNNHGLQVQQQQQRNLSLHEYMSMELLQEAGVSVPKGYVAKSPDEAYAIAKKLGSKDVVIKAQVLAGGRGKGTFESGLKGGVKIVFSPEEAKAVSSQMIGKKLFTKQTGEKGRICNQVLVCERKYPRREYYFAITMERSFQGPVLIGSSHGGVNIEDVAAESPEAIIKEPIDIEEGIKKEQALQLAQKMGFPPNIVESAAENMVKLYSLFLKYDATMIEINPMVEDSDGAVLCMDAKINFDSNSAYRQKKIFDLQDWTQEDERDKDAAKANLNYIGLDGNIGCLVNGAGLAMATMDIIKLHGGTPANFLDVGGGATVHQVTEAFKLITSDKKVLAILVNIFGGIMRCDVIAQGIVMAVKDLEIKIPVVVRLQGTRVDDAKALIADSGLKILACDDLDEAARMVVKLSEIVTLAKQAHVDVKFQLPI
Note: in the data inactive means no Kd found up to 30 µM.

Sequence of Eukaryotic translation initiation factor 2-alpha kinase 1 (Q9BQI3 whole entry): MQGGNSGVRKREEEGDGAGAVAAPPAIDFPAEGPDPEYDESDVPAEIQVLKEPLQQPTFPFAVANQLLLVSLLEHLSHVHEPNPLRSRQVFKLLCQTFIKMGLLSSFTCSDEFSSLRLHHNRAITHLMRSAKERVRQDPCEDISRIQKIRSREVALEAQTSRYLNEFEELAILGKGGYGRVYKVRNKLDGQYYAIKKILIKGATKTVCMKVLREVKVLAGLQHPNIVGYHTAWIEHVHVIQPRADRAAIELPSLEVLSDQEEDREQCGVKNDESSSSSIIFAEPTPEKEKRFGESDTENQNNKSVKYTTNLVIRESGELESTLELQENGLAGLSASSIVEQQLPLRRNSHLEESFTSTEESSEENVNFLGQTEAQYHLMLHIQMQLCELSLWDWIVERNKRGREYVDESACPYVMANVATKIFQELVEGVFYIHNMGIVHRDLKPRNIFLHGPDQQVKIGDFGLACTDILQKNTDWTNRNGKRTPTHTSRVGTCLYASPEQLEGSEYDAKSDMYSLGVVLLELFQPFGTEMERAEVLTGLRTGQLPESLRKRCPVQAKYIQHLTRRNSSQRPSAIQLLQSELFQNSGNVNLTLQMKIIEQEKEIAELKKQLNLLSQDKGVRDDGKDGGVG
Sequence of Mitogen-activated protein kinase kinase kinase 1 (Q13233 whole entry): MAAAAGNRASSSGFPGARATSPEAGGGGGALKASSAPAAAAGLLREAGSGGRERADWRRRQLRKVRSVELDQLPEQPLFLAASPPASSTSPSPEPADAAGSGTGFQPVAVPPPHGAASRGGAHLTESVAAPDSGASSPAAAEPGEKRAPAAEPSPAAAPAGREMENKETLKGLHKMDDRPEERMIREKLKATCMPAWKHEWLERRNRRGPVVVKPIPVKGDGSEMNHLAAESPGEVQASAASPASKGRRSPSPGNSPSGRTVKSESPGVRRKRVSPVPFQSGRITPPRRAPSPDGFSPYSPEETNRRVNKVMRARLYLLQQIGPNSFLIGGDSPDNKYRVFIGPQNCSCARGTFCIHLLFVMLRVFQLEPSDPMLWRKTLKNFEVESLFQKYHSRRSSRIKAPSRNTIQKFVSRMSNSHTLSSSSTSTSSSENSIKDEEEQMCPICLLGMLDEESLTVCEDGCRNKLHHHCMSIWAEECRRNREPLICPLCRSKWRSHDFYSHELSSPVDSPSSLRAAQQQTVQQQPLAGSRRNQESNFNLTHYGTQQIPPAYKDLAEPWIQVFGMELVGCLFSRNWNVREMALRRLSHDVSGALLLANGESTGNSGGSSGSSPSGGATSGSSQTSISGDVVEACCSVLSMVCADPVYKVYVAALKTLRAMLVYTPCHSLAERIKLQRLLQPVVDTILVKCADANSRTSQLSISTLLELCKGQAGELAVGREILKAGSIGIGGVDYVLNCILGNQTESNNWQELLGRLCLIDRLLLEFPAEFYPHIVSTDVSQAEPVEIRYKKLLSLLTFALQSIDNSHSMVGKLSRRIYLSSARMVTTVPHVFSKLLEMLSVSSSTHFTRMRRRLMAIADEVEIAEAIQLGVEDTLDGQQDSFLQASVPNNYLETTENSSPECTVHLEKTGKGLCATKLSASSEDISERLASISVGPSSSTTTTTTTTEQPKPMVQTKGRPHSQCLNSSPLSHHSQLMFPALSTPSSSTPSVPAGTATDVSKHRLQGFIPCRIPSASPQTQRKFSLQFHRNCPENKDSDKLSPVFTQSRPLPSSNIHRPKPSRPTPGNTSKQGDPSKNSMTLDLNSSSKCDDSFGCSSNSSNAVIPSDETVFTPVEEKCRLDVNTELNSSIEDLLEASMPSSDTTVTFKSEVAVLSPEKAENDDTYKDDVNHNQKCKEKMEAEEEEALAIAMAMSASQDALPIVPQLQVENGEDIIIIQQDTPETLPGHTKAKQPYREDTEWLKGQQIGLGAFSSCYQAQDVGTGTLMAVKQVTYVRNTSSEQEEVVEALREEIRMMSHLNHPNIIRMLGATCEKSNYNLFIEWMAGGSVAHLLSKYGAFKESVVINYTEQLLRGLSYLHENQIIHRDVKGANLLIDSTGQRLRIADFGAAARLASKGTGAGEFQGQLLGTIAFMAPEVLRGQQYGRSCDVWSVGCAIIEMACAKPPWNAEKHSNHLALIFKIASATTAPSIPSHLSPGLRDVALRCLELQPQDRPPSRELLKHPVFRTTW
Sequence of Adenosine kinase (P55263 whole entry): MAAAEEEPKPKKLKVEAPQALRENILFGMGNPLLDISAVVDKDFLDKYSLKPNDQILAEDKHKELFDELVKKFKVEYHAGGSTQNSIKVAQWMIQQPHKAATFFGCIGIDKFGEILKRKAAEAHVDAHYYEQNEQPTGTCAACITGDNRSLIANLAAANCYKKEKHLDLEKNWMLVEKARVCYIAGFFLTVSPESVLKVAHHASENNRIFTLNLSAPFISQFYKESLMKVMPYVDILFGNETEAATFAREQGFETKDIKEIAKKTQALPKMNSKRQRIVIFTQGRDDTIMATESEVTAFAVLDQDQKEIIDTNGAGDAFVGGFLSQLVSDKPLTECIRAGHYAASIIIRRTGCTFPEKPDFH
Sequence of Mitogen-activated protein kinase kinase kinase 4 (Q9Y6R4 whole entry): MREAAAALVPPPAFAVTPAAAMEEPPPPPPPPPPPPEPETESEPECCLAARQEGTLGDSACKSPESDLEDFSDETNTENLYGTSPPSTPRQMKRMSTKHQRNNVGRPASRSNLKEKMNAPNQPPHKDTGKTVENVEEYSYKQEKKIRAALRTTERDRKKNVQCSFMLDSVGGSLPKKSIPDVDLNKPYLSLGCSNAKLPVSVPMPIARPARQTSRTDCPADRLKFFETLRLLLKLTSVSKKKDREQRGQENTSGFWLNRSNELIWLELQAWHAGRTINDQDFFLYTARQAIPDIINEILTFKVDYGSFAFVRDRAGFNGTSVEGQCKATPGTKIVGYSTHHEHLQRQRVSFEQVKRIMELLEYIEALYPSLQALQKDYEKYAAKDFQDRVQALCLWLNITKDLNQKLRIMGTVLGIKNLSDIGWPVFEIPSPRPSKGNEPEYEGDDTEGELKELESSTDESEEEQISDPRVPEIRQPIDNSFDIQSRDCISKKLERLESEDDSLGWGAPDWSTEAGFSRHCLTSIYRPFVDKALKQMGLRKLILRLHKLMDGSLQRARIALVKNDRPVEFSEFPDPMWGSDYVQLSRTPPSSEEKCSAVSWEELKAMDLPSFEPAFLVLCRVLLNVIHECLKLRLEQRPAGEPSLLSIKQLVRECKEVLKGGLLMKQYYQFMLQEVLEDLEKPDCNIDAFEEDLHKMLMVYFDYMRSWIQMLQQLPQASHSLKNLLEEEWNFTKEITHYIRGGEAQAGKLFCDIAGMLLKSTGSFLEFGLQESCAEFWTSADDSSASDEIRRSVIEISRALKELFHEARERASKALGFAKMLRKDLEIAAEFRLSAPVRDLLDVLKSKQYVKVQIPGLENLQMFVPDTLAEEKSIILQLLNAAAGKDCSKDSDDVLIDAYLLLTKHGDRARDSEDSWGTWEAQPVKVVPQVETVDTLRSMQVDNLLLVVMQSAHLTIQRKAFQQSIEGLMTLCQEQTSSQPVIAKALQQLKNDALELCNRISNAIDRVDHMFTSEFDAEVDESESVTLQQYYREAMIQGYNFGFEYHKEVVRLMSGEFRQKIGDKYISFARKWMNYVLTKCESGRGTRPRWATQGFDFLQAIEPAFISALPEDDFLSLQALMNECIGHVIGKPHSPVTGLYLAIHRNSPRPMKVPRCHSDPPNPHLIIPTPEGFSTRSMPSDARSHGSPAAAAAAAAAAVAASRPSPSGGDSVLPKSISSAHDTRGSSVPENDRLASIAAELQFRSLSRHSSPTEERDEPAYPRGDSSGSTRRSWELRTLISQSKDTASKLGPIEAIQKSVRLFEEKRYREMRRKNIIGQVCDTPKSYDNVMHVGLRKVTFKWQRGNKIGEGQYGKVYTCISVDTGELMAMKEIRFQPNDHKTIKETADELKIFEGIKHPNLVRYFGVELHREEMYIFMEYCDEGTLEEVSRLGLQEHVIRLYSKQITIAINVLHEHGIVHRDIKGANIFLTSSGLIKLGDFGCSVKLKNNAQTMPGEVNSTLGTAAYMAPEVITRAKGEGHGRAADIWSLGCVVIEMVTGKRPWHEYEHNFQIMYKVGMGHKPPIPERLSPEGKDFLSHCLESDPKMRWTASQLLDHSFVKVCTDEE
Sequence of Mitogen-activated protein kinase kinase kinase kinase 1 (Q92918 whole entry): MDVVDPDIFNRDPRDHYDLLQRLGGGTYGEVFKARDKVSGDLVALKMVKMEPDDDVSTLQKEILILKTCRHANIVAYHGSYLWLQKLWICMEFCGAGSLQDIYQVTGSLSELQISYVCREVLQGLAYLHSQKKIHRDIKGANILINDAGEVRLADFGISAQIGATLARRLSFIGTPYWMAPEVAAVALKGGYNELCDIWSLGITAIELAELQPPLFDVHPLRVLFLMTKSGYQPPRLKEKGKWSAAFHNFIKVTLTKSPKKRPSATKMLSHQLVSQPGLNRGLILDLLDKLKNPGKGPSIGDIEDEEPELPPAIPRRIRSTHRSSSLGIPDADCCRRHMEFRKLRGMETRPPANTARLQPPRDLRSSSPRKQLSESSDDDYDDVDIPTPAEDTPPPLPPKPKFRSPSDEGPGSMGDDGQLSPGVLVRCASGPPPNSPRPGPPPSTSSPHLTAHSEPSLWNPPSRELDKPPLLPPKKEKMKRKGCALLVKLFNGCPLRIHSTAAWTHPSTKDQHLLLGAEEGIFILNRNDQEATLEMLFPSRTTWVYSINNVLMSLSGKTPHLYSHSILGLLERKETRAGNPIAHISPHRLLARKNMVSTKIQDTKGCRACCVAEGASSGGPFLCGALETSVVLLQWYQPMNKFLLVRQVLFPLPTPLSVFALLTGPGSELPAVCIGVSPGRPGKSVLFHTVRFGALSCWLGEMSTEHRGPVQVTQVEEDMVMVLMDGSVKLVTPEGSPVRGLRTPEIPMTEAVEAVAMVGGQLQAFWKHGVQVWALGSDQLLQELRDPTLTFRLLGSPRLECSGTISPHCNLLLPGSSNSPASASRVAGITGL

Structure (SMILES) | Kd (Adenosine kinase) | Kd [1] | Kd [2] | Kd [3] | Kd [4] | Kd [5] | Kd [6] | Kd [7] | Kd [8] | Kd [9] | Kd [10] | Kd [11] | Kd [12] | Kd [13]
Cc1cc(Nc2nc(N[C@@H](C)c3ncc(F)cn3)ncc2Cl)n[nH]1 [AZD-1480] | > 30 µM (inactive) | > 30 µM (inactive) | > 30 µM (inactive) | 3.96 µM (active) | > 30 µM (inactive) | > 30 µM (inactive) | > 30 µM (inactive) | > 30 µM (inactive) | > 30 µM (inactive) | > 30 µM (inactive) | > 30 µM (inactive) | 0.86 µM (active) | > 30 µM (inactive) | –
COc1cccc(Nc2ncnn3ccc(CN4CC[C@@H](N)[C@H](O)C4)c23)c1 [BMS-690514] | > 30 µM (inactive) | > 30 µM (inactive) | > 30 µM (inactive) | – | > 30 µM (inactive) | > 30 µM (inactive) | > 30 µM (inactive) | > 30 µM (inactive) | > 30 µM (inactive) | > 30 µM (inactive) | > 30 µM (inactive) | > 30 µM (inactive) | > 30 µM (inactive) | > 30 µM (inactive)
C=CCn1c(=O)c2cnc(Nc3ccc(N4CCN(C)CC4)cc3)nc2n1-c1cccc(C(C)(C)O)n1 [ADAVOSERTIB] | 0.013 µM (active) | – | > 30 µM (inactive) | 0.412 µM (active) | > 30 µM (inactive) | > 30 µM (inactive) | 0.052 µM (active) | > 30 µM (inactive) | > 30 µM (inactive) | > 30 µM (inactive) | > 30 µM (inactive) | – | – | > 30 µM (inactive)
Cc1cc(-c2cc(OC(=O)c3ccccc3)ccc2Cl)cc2nnc(Nc3ccc(OCCN4CCCC4)cc3)nc12 [TG100-801] | > 30 µM (inactive) | > 30 µM (inactive) | > 30 µM (inactive) | > 30 µM (inactive) | > 30 µM (inactive) | > 30 µM (inactive) | > 30 µM (inactive) | – | > 30 µM (inactive) | > 30 µM (inactive) | 0.109 µM (active) | > 30 µM (inactive) | > 30 µM (inactive) | –
N#CCNC(=O)c1ccc(-c2ccnc(Nc3ccc(N4CCOCC4)cc3)n2)cc1 [MOMELOTINIB] | > 30 µM (inactive) | > 30 µM (inactive) | > 30 µM (inactive) | 0.302 µM (active) | – | > 30 µM (inactive) | > 30 µM (inactive) | > 30 µM (inactive) | > 30 µM (inactive) | > 30 µM (inactive) | > 30 µM (inactive) | – | > 30 µM (inactive) | > 30 µM (inactive)
Cc1cc(C(=O)Nc2cc(Oc3ccc4nc(NC(=O)C5CC5)cn4n3)ccc2C)n(C)n1 [TAK-593] | – | > 30 µM (inactive) | > 30 µM (inactive) | > 30 µM (inactive) | > 30 µM (inactive) | > 30 µM (inactive) | > 30 µM (inactive) | > 30 µM (inactive) | > 30 µM (inactive) | > 30 µM (inactive) | – | > 30 µM (inactive) | > 30 µM (inactive) | > 30 µM (inactive)
COc1cc(Nc2ncc(F)c(Nc3ccc4c(n3)N(COP(=O)(O)O)C(=O)C(C)(C)O4)n2)cc(OC)c1OC [FOSTAMATINIB] | > 30 µM (inactive) | > 30 µM (inactive) | > 30 µM (inactive) | > 30 µM (inactive) | > 30 µM (inactive) | > 30 µM (inactive) | > 30 µM (inactive) | > 30 µM (inactive) | > 30 µM (inactive) | > 30 µM (inactive) | > 30 µM (inactive) | > 30 µM (inactive) | – | > 30 µM (inactive)
CCOc1ccn(-c2ccc(F)cc2)c(=O)c1C(=O)Nc1ccc(Oc2ccnc(N)c2Cl)c(F)c1 [BMS-777607] | > 30 µM (inactive) | – | > 30 µM (inactive) | > 30 µM (inactive) | > 30 µM (inactive) | > 30 µM (inactive) | > 30 µM (inactive) | > 30 µM (inactive) | > 30 µM (inactive) | > 30 µM (inactive) | > 30 µM (inactive) | > 30 µM (inactive) | > 30 µM (inactive) | > 30 µM (inactive)
O=C(O)c1ccc2c(c1)nc(Nc1cccc(Cl)c1)c1ccncc12 [SILMITASERTIB] | > 30 µM (inactive) | > 30 µM (inactive) | – | – | 1.66 µM (active) | > 30 µM (inactive) | > 30 µM (inactive) | > 30 µM (inactive) | > 30 µM (inactive) | > 30 µM (inactive) | > 30 µM (inactive) | > 30 µM (inactive) | > 30 µM (inactive) | > 30 µM (inactive)
Cn1c(=O)n(-c2ccc(C(C)(C)C#N)cc2)c2c3cc(-c4cnc5ccccc5c4)ccc3ncc21 [DACTOLISIB] | > 30 µM (inactive) | – | > 30 µM (inactive) | > 30 µM (inactive) | > 30 µM (inactive) | > 30 µM (inactive) | > 30 µM (inactive) | > 30 µM (inactive) | > 30 µM (inactive) | > 30 µM (inactive) | – | > 30 µM (inactive) | > 30 µM (inactive) | > 30 µM (inactive)
O=S(=O)(c1cccc2cnccc12)N1CCCNCC1 [FASUDIL] | > 30 µM (inactive) | – | – | > 30 µM (inactive) | > 30 µM (inactive) | > 30 µM (inactive) | > 30 µM (inactive) | > 30 µM (inactive) | > 30 µM (inactive) | > 30 µM (inactive) | > 30 µM (inactive) | – | > 30 µM (inactive) | > 30 µM (inactive)
CC1(COc2ccc3c(c2)ncn3-c2ccc3cccc(N4CCC(N)CC4)c3n2)COC1 [CRENOLANIB] | > 30 µM (inactive) | > 30 µM (inactive) | 1.38 µM (active) | > 30 µM (inactive) | > 30 µM (inactive) | > 30 µM (inactive) | > 30 µM (inactive) | > 30 µM (inactive) | > 30 µM (inactive) | > 30 µM (inactive) | – | 0.743 µM (active) | > 30 µM (inactive) | 0.007 µM
CN1CCN(c2nc(C3=C(c4c[nH]c5ccccc45)C(=O)NC3=O)c3ccccc3n2)CC1 [SOTRASTAURIN] | > 30 µM (inactive) | > 30 µM (inactive) | – | > 30 µM (inactive) | > 30 µM (inactive) | > 30 µM (inactive) | > 30 µM (inactive) | > 30 µM (inactive) | > 30 µM (inactive) | > 30 µM (inactive) | – | > 30 µM (inactive) | > 30 µM (inactive) | > 30 µM (inactive)
